Results published in patent US20250235444A1, “COMPOSITION FOR PREVENTING OR TREATING VALVULAR CALCIFICATION” (MOKPO NATIONAL UNIVERSITY INDUSTRY-ACADEMIA COOPERATION …, priority 2022, published 2025).

Columns and labels:
[1] = tested on: RUNX2 (Runt-related transcription factor2); experiment: Western blot analysis of calcification marker RUNX2 in calcification-induced valvular interstitial cells; format: cell-based, porcine; conditions: compared to the calcification-induced experimental group; calcification induced for 10 days; FIG. 3
Description: (§1) To isolate porcine valvular interstitial cells, porcine heart valves were treated with collagenase for 15 minutes, after which endothelial cells were removed and cultured again for 24 hours. The cells obtained through centrifugation are valvular interstitial cells and were cultured in DMEM (high-glucose, Gibco) medium containing 0.1% amphotericin B, 1% penicillin-streptomycin, and 5% FBS.
(§2) To induce calcification, cells were seeded at a density of 1×10^4/ml in a 96-well culture vessel, and calcification was induced for a total of 10 days. Control medium (CM) used DMEM containing 0.1% amphotericin B, 1% penicillin-streptomycin, and 5% FBS and the pro-calcifying medium (PCM) was a control medium with 2 mM NaH2PO4 added. The medium was replaced every 2 days.
(§3) To observe if anti-calcification substances inhibit calcification, 10 uM or 100 uM paquinimod or 10 uM tasquinimod were treated, and 10% DMSO (Sigma-Aldrich) was treated as a control, and then cultured in a cell incubator at 37° C. with a 5% CO2 concentration.
(§4) After seeding cells at 5×10^4/mL in a 6-well plate, calcification was induced for a total of 10 days. […]
(§5) To lyse the cells, 1×RIPA buffer was added to each well and lysed for 10 minutes. […] Protein quantification of the obtained cell lysates was measured using Bio-Rad DC protein reagent. […]

[2] = tested on: porcine valvular interstitial cells; experiment: Calcification of porcine valvular interstitial cells induced by NaH2PO4 (PCM), Alizarin red staining and CPC analysis; format: cell-based; conditions: pro-calcifying medium with 2 mM NaH2PO4, 10 days
Description: as §1
To induce calcification, cells were seeded at a density of 1×10^4/ml in a 96-well culture vessel, and calcification was induced for a total of 10 days. […]
To quantify Alizarin Red stain, after washing twice with PBS, it was fixed with cold 70% ethanol at 4° C. for 1 hour, and after washing with dH2O, the sample was treated with 10% CPC (cetylpyridinium chloride, Sigma-Aldrich) for 1 hour (shaken and in the dark), transferred to a new measuring container, and measured for absorbance at 550 nm.
Interstitial cells were isolated from porcine heart valves and the inhibitory effect of paquinimod or tasquinimod on valvular calcification was confirmed according to the concentration. Porcine valve-derived cells were induced to calcify by NaH2PO4, and the degree of valvular calcification was measured after treatment with paquinimod or tasquinimod at different concentrations under the same conditions.

[3] = tested on: Osteopontin (OPN); experiment: Western blot analysis of calcification marker osteopontin in calcification-induced valvular interstitial cells; format: cell-based, porcine; conditions: compared to the calcification-induced experimental group; calcification induced for 10 days; FIG. 3
Description: as §1, §2, §3, §4, §5

SMILES | expression of RUNX2 (Western blot) [1] | degree of valvular calcification (Alizarin red staining and CPC analysis) ([2]; 10 uM or more of paquinimod (10 uM or 100 uM), FIG. 1) | expression of osteopontin (Western blot) [3] | degree of valvular calcification ([2]; 10 uM tasquinimod, FIG. 2)
CCc1cccc2c1c(O)c(C(=O)N(CC)c1ccccc1)c(=O)n2C [paquinimod] | significantly reduced | inhibition of valvular calcification in a concentration-dependent manner | significantly reduced | –
COc1cccc2c1c(O)c(C(=O)N(C)c1ccc(C(F)(F)F)cc1)c(=O)n2C [tasquinimod] | – | – | – | had an inhibitory effect on valvular calcification
